Assay results published in ChEMBL document CHEMBL3991601, “The target landscape of clinical kinase drugs” (Science, 2017).
The source made the active and inactive calls.

Tests used:
[1] = target: Serine/threonine-protein kinase B-raf (Homo sapiens, UniProt P15056)
[2] = target: T1, Peroxisomal acyl-coenzyme A oxidase 1 (Homo sapiens, UniProt Q15067)
T1 sequence (Q15067 whole entry): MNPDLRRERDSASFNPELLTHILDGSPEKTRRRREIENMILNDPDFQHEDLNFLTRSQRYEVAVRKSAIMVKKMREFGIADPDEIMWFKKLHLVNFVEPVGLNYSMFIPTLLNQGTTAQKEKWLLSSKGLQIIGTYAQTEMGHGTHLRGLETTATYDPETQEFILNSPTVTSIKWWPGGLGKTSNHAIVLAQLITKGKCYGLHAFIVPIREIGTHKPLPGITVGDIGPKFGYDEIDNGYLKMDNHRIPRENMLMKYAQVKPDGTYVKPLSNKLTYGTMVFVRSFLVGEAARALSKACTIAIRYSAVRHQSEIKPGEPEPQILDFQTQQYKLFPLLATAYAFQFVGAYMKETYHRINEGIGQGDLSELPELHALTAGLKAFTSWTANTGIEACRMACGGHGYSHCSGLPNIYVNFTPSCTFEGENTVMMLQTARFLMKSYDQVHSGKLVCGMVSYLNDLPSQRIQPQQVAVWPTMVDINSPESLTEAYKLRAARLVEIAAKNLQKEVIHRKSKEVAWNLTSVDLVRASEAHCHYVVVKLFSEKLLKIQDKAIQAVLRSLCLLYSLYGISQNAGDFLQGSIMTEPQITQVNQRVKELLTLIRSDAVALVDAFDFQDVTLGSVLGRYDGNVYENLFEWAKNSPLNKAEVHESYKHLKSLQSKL

[3] = target: T2, Glycogen phosphorylase, liver form (Homo sapiens, UniProt P06737); assay type: subcellular, K-562, COLO 205, SK-N-BE(2) and MV-4-11, Cell lysate; details: read-out: Kd apparent
T2 sequence (P06737 whole entry): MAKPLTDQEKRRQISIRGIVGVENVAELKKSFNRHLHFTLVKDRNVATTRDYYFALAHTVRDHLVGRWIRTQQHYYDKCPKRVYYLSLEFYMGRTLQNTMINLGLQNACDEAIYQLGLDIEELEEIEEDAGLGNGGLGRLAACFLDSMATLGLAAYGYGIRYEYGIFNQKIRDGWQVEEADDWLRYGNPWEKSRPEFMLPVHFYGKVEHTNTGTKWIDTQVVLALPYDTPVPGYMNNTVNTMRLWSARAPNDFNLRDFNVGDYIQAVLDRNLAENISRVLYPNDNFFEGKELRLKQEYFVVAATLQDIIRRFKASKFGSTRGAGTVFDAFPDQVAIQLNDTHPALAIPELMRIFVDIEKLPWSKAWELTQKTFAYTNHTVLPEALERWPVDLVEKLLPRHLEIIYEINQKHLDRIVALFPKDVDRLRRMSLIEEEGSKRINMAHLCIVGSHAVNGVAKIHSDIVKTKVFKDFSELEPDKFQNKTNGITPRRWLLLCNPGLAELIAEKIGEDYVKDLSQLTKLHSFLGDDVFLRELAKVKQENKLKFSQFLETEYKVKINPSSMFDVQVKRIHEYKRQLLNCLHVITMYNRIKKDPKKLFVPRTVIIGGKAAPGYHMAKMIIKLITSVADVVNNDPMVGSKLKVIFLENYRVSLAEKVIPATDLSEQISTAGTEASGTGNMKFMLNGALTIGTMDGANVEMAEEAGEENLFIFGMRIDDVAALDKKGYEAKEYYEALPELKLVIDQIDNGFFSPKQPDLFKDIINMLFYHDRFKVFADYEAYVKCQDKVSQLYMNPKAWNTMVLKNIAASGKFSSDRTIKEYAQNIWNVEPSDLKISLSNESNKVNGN

[4] = target: T3, Cyclin-G-associated kinase (Homo sapiens, UniProt O14976)
T3 sequence (O14976 whole entry): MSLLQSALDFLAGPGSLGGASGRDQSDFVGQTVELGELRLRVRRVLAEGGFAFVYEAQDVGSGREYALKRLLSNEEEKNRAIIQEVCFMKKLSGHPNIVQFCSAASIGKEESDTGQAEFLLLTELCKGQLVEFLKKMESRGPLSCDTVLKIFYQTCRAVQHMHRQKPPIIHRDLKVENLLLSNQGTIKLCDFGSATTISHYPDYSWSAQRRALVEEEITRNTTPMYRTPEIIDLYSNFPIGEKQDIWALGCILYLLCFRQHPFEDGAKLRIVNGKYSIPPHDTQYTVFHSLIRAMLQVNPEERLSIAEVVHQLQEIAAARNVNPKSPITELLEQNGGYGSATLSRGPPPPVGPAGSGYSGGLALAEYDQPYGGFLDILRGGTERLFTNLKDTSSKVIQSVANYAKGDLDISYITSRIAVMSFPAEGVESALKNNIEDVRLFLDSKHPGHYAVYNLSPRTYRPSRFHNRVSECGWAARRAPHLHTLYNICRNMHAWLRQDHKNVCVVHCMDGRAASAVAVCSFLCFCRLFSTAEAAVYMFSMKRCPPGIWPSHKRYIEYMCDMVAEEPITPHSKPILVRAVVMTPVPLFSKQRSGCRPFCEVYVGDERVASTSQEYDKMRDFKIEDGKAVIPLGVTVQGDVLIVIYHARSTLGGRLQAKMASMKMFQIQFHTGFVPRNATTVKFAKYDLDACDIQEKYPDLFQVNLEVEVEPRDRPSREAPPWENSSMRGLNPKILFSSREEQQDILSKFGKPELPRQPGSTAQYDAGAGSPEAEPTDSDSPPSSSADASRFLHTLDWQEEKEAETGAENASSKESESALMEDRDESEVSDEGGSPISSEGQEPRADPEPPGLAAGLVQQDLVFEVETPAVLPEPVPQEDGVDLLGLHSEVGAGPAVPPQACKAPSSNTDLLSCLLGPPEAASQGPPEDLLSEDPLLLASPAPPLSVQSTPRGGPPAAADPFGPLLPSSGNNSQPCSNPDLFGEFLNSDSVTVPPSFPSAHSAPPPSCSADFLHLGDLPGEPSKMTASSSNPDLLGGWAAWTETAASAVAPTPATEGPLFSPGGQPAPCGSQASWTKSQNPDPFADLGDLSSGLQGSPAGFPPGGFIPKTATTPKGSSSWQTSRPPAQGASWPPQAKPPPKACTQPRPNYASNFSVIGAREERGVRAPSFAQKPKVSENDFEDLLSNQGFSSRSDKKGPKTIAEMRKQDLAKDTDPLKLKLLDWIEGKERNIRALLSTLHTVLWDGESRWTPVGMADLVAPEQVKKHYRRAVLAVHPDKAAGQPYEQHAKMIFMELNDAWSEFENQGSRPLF

Measured: Kd
Note: in the data inactive means no Kd found up to 30 µM.

Sequence of Serine/threonine-protein kinase B-raf (P15056 whole entry): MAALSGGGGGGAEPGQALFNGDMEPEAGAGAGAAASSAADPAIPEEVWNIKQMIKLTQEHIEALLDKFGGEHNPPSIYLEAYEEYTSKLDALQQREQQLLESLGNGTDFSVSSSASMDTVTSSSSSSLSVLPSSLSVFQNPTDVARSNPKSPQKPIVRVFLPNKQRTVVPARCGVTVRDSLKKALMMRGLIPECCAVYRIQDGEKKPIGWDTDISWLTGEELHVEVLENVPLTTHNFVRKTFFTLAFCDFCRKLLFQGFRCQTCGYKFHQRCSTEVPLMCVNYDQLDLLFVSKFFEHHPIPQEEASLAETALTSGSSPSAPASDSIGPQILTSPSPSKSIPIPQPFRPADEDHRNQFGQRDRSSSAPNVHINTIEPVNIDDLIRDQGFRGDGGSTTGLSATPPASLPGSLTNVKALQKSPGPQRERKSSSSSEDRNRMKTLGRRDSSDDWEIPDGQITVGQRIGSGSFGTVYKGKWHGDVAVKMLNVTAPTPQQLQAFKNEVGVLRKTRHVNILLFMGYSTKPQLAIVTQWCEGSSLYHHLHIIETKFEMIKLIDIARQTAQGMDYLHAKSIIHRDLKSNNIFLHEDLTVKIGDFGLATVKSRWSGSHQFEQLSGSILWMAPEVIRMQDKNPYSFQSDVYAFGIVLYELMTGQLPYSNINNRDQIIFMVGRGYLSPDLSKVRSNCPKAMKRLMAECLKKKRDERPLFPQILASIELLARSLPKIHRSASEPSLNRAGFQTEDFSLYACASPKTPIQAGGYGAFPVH

Cn1c(=O)n(-c2ccc(C(C)(C)C#N)cc2)c2c3cc(-c4cnc5ccccc5c4)ccc3ncc21 [DACTOLISIB]
inactive: [1] > 30 µM | [2] > 30 µM | [3] > 30 µM | [4] > 30 µM

S=C(NCc1ccc2c(c1)OCO2)N1CCN(c2ncnc3c2oc2ccccc23)CC1 [AMUVATINIB]
inactive: [1] > 30 µM | [2] > 30 µM | [3] > 30 µM | [4] > 30 µM

CC1(COc2ccc3c(c2)ncn3-c2ccc3cccc(N4CCC(N)CC4)c3n2)COC1 [CRENOLANIB]
active: [4] 2.41 µM
inactive: [1] > 30 µM | [2] > 30 µM | [3] > 30 µM

O=S(=O)(c1cccc2cnccc12)N1CCCNCC1 [FASUDIL]
inactive: [1] > 30 µM | [2] > 30 µM | [3] > 30 µM | [4] > 30 µM

CNC(=O)c1cc(COc2nnc(Nc3ccc(Cl)cc3)c3ccoc23)ccn1 [TELATINIB]
inactive: [1] > 30 µM | [2] > 30 µM | [3] > 30 µM | [4] > 30 µM

COc1cccc2cc(-c3nc([C@H]4CC[C@H](C(=O)O)CC4)n4ncnc(N)c34)[nH]c12 [OSI-027]
inactive: [1] > 30 µM | [2] > 30 µM | [3] > 30 µM | [4] > 30 µM

CNC(=O)c1cccc(-c2ccc3c(N4CCOC[C@@H]4C)nc(N4CCOC[C@@H]4C)nc3n2)c1 [VISTUSERTIB]
inactive: [1] > 30 µM | [2] > 30 µM | [3] > 30 µM | [4] > 30 µM

c1cc(OCCN2CCCCC2)cc(-c2n[nH]c3ccc(-c4nc[nH]n4)cc23)c1 [CC-401]
inactive: [1] > 30 µM | [2] > 30 µM | [3] > 30 µM
active: [4] 1.46 µM

C=CC(=O)Nc1cc(Nc2nccc(-c3cn(C)c4ccccc34)n2)c(OC)cc1N(C)CCN(C)C [OSIMERTINIB]
inactive: [1] > 30 µM | [2] > 30 µM | [3] > 30 µM | [4] > 30 µM

COc1cc(Nc2ncc(F)c(Nc3ccc4c(n3)N(COP(=O)(O)O)C(=O)C(C)(C)O4)n2)cc(OC)c1OC [FOSTAMATINIB]
inactive: [1] > 30 µM | [2] > 30 µM | [3] > 30 µM | [4] > 30 µM

COc1ccc2c(OCc3nnc4ccc(-c5ccccc5)nn34)ccnc2c1 [AMG-208]
inactive: [1] > 30 µM | [2] > 30 µM | [3] > 30 µM | [4] > 30 µM

CC(C)CC(=O)Nc1[nH]nc2c1CN(C(=O)C1CCN(C)CC1)C2(C)C [PHA-793887]
inactive: [1] > 30 µM | [2] > 30 µM | [3] > 30 µM | [4] > 30 µM

CC[C@@](C)(Nc1ccnc(-c2c[nH]c3ncccc23)n1)C(=O)NCC(F)(F)F [DECERNOTINIB]
inactive: [1] > 30 µM | [2] > 30 µM | [3] > 30 µM | [4] > 30 µM

C=CCn1c(=O)c2cnc(Nc3ccc(N4CCN(C)CC4)cc3)nc2n1-c1cccc(C(C)(C)O)n1 [ADAVOSERTIB]
inactive: [1] > 30 µM | [2] > 30 µM | [3] > 30 µM
active: [4] 0.418 µM

O=c1[nH]c([C@@H]2CCCN2)nc2c1oc1ccc(Cl)cc12
inactive: [1] > 30 µM | [2] > 30 µM | [3] > 30 µM | [4] > 30 µM

Cc1c(Cn2c(C)nc3c(C(=O)O)cc(N4CCOCC4)cc32)cccc1C(F)(F)F [GSK-2636771]
inactive: [1] > 30 µM | [2] > 30 µM | [3] > 30 µM | [4] > 30 µM

Cn1cc(-c2[nH]c3cc(NC(=O)[C@H](N)C4CCCCC4)cc4c3c2C=NNC4=O)cn1
active: [4] 0.023 µM
inactive: [1] > 30 µM | [2] > 30 µM | [3] > 30 µM

NC(=O)c1ccc(N(C(N)=O)c2c(F)cccc2F)nc1-c1ccc(F)cc1F [VX-702]
inactive: [1] > 30 µM | [2] > 30 µM | [3] > 30 µM | [4] > 30 µM

COCCN1CCN(Cc2ccc(-c3n[nH]c4c3C(=O)c3c(NC(=O)NN5CCOCC5)cccc3-4)cc2)CC1 [RGB-286638]
inactive: [1] > 30 µM | [2] > 30 µM | [3] > 30 µM
active: [4] 0.004 µM

COc1cccc(Nc2ncnn3ccc(CN4CC[C@@H](N)[C@H](O)C4)c23)c1 [BMS-690514]
active: [4] 0.0003 µM
inactive: [1] > 30 µM | [2] > 30 µM | [3] > 30 µM

O=C(NC[C@H](O)CO)c1ccncc1Nc1ccc(I)cc1F [PIMASERTIB]
inactive: [1] > 30 µM | [2] > 30 µM | [3] > 30 µM | [4] > 30 µM

Cc1cc(-c2cc(OC(=O)c3ccccc3)ccc2Cl)cc2nnc(Nc3ccc(OCCN4CCCC4)cc3)nc12 [TG100-801]
active: [4] 0.824 µM
inactive: [1] > 30 µM | [2] > 30 µM | [3] > 30 µM

O=C(Nc1ccc(OC(F)(F)F)cc1)c1sccc1NCc1ccnc2ccccc12 [OSI-930]
inactive: [1] > 30 µM | [2] > 30 µM | [3] > 30 µM | [4] > 30 µM

NC[C@@](O)(c1ccc(Cl)cc1)c1ccc(-c2cn[nH]c2)cc1 [AT-13148]
inactive: [1] > 30 µM | [2] > 30 µM | [3] > 30 µM | [4] > 30 µM

COc1cc2nccc(Oc3ccc(NC(=O)C4(C(=O)Nc5ccc(F)cc5)CC4)cc3)c2cc1OC [CABOZANTINIB]
inactive: [1] > 30 µM | [2] > 30 µM | [3] > 30 µM | [4] > 30 µM

C[C@@H]1COC(Nc2ccc3ncnc(Nc4ccc(OCc5nccs5)c(Cl)c4)c3c2)=N1 [VARLITINIB]
inactive: [1] > 30 µM | [2] > 30 µM | [3] > 30 µM | [4] > 30 µM
